{
  "source": "ChEMBL document CHEMBL4507261",
  "about": "“Data for DCP probe A-192621” (2021)",
  "key": {"[1]": {"molecular_target": "D(1B) dopamine receptor (Homo sapiens) (UniProt P21918)", "sequence (P21918 whole entry)": "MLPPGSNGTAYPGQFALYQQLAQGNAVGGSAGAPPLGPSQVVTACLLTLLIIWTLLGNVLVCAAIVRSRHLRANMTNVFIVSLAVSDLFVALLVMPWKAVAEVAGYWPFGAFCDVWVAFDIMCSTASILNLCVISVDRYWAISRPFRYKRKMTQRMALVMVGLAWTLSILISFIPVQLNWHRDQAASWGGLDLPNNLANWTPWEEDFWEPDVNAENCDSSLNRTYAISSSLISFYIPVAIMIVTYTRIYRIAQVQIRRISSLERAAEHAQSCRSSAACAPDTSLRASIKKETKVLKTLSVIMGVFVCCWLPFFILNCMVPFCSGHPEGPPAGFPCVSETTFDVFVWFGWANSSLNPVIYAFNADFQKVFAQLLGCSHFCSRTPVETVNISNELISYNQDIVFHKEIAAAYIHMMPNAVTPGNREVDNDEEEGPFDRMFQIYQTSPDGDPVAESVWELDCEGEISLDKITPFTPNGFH", "details": "Compound concentration 10.0 uM"}, "[2]": {"molecular_target": "D(3) dopamine receptor (Homo sapiens) (UniProt P35462)", "details": "Compound concentration 10.0 uM"}, "[3]": {"molecular_target": "Histamine H1 receptor (Homo sapiens) (UniProt P35367)", "sequence (P35367 whole entry)": "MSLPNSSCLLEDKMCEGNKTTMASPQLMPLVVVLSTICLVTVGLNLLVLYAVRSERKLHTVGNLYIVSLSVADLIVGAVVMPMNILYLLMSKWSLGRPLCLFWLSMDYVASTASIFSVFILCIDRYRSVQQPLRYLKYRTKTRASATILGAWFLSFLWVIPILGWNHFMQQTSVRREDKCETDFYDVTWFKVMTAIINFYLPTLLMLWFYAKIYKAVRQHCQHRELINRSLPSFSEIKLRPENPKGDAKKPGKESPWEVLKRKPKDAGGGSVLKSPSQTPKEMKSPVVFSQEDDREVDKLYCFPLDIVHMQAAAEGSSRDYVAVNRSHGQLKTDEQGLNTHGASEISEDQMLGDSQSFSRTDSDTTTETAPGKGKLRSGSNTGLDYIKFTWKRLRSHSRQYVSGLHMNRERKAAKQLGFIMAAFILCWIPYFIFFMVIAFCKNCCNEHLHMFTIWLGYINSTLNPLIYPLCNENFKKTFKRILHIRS", "details": "Compound concentration 10.0 uM"}, "[4]": {"molecular_target": "5-hydroxytryptamine receptor 1D (Homo sapiens) (UniProt P28221)", "details": "Compound concentration 10.0 uM"}, "[5]": {"molecular_target": "Histamine H2 receptor (Homo sapiens) (UniProt P25021)", "sequence (P25021 whole entry)": "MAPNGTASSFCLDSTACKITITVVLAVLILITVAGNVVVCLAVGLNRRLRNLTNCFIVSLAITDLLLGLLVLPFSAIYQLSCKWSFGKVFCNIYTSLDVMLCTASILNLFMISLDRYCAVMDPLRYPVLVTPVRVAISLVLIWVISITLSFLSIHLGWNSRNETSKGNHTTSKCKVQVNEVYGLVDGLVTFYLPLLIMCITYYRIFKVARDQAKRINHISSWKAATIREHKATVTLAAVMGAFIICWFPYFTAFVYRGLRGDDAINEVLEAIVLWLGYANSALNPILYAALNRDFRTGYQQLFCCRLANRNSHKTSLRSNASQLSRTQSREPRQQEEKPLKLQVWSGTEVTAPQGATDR", "details": "Compound concentration 10.0 uM"}, "Rattus norvegicus": {"species": "Rattus norvegicus", "details": "Compound concentration 10.0 uM"}, "[6]": {"molecular_target": "T1, 5-hydroxytryptamine receptor 2C (Homo sapiens) (UniProt P28335)", "T1 sequence (whole entry)": "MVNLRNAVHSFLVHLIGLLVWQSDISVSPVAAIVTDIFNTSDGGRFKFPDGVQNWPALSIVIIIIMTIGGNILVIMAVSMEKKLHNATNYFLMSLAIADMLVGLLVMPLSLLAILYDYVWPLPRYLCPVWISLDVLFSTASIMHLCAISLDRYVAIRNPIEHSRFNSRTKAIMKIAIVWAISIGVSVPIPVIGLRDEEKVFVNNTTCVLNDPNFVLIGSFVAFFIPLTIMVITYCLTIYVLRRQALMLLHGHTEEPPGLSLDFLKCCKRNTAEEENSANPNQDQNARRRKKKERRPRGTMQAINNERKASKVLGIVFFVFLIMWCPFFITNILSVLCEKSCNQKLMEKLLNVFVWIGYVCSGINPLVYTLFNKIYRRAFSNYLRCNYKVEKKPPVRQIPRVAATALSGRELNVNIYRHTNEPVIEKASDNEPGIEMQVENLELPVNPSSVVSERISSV", "details": "Compound concentration 10.0 uM"}, "[7]": {"molecular_target": "5-hydroxytryptamine receptor 1B (Homo sapiens) (UniProt P28222)", "sequence (P28222 whole entry)": "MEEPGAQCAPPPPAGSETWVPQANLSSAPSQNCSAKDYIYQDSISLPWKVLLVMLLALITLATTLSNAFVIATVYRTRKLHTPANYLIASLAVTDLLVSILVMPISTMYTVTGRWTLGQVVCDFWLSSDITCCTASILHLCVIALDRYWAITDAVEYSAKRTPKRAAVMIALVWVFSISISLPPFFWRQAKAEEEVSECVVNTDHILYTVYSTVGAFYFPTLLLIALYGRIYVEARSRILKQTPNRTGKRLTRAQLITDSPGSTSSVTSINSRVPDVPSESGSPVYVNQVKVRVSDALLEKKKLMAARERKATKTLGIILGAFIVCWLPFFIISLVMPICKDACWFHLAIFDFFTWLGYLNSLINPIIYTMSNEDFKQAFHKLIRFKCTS", "details": "Compound concentration 10.0 uM"}, "[8]": {"molecular_target": "5-hydroxytryptamine receptor 7 (Homo sapiens) (UniProt P34969)", "sequence (P34969 whole entry)": "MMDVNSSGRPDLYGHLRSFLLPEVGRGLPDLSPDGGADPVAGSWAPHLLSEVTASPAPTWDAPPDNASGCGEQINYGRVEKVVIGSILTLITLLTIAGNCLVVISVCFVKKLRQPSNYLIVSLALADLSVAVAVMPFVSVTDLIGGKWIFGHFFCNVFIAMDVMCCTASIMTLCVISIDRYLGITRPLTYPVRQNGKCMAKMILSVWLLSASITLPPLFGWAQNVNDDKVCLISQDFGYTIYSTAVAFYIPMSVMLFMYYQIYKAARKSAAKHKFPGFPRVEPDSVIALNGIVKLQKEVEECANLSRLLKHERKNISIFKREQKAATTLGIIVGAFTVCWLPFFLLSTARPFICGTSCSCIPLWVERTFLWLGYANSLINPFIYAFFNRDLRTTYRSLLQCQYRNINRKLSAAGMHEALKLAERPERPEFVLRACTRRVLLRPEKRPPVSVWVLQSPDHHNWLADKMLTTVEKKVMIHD", "details": "Compound concentration 10.0 uM"}, "[9]": {"molecular_target": "Kappa-type opioid receptor (Homo sapiens) (UniProt P41145)", "sequence (P41145 whole entry)": "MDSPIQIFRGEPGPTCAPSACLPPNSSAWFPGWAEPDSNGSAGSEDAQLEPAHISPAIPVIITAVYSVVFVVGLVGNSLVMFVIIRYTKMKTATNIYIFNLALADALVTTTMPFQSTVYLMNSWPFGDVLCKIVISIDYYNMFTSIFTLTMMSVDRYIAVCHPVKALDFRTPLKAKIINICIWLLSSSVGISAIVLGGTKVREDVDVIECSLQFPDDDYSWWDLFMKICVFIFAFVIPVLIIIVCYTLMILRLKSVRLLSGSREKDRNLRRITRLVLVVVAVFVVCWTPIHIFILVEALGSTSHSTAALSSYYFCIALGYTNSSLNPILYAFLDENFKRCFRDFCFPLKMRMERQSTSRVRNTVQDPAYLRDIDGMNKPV", "details": "Compound concentration 10.0 uM"}, "[10]": {"molecular_target": "5-hydroxytryptamine receptor 2A (Homo sapiens) (UniProt P28223)", "details": "Compound concentration 10.0 uM"}, "[11]": {"molecular_target": "T2, 5-hydroxytryptamine receptor 3A (Homo sapiens) (UniProt P46098)", "T2 sequence (whole entry)": "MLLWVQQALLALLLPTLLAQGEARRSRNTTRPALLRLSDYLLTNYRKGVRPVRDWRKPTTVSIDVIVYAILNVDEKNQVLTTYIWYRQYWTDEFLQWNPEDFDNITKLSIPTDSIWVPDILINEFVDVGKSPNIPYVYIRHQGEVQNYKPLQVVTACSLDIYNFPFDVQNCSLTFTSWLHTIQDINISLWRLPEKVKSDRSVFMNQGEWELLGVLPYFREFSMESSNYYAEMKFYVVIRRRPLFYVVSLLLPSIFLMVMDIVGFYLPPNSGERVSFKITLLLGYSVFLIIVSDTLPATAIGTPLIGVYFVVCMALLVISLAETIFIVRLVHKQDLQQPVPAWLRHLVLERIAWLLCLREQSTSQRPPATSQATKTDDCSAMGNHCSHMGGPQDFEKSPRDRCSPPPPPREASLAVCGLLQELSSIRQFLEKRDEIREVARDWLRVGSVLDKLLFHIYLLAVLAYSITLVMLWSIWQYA", "details": "Compound concentration 10.0 uM"}, "[12]": {"molecular_target": "Histamine H4 receptor (Homo sapiens) (UniProt Q9H3N8)", "sequence (Q9H3N8 whole entry)": "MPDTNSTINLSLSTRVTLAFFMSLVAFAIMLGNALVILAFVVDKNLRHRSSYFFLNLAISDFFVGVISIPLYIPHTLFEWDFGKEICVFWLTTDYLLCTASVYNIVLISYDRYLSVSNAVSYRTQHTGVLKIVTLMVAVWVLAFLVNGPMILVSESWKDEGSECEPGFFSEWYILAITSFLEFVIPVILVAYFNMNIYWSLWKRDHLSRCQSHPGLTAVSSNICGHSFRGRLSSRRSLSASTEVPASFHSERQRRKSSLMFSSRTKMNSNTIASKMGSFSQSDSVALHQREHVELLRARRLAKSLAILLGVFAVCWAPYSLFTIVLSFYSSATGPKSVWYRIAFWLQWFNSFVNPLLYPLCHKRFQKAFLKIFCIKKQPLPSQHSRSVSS", "details": "Compound concentration 10.0 uM"}, "[13]": {"molecular_target": "Sigma non-opioid intracellular receptor 1 (Homo sapiens) (UniProt Q99720)", "sequence (Q99720 whole entry)": "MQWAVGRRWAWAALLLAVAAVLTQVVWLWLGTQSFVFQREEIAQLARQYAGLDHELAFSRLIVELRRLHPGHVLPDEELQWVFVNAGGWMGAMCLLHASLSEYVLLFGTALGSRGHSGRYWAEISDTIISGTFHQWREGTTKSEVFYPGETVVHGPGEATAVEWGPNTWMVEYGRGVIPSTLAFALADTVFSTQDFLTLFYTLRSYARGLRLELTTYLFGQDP", "details": "Compound concentration 10.0 uM"}, "[14]": {"molecular_target": "Alpha-1D adrenergic receptor (Homo sapiens) (UniProt P25100)", "sequence (P25100 whole entry)": "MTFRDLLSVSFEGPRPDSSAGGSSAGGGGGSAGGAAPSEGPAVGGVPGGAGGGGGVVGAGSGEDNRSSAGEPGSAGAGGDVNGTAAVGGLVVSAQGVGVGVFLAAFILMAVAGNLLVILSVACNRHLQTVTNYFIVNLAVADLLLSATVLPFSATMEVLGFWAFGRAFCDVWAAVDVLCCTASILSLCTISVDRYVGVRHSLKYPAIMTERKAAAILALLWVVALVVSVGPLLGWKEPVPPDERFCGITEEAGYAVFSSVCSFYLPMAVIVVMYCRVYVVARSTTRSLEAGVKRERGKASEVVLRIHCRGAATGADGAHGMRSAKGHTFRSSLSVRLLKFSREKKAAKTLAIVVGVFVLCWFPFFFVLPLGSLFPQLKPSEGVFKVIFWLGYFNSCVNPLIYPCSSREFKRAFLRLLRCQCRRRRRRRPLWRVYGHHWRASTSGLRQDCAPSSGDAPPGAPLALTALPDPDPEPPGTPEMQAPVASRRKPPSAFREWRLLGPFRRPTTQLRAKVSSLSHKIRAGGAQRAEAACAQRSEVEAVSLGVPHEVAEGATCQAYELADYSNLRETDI", "details": "Compound concentration 10.0 uM"}, "[15]": {"molecular_target": "GABA-A receptor; anion channel (Rattus norvegicus) (UniProt O09028+P15431+P18506+P18508+P19969+P20236+P23574+P23576+P28471+P28473+P30191+P62813+P63079+P63138+Q91ZM7+Q9ES14)", "details": "Compound concentration 10.0 uM"}, "[16]": {"molecular_target": "Sigma intracellular receptor 2 (Homo sapiens) (UniProt Q5BJF2)", "sequence (Q5BJF2 whole entry)": "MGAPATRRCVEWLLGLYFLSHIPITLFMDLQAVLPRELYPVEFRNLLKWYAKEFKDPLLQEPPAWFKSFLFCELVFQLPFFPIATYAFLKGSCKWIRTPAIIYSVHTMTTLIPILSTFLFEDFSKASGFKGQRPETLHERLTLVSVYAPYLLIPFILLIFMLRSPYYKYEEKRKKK", "details": "Compound concentration 10.0 uM"}, "[17]": {"molecular_target": "Endothelin receptor type B (Homo sapiens, UniProt P24530)", "sequence (P24530 whole entry)": "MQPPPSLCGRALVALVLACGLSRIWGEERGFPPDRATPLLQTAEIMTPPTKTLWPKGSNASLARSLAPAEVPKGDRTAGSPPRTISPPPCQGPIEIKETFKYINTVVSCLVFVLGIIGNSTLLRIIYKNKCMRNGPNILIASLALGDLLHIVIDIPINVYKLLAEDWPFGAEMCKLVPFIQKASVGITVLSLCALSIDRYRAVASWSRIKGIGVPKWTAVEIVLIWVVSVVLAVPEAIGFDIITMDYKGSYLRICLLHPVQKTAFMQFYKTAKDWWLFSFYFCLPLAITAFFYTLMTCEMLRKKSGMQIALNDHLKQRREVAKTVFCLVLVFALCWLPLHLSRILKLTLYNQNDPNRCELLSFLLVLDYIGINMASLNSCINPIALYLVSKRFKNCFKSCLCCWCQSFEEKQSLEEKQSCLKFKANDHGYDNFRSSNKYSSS", "assay": "EDNRB- dependent phosphatidylinositol hydrolysis assay", "format": "functional"}, "[18]": {"molecular_target": "Alpha-2C adrenergic receptor (Homo sapiens) (UniProt P18825)", "sequence (P18825 whole entry)": "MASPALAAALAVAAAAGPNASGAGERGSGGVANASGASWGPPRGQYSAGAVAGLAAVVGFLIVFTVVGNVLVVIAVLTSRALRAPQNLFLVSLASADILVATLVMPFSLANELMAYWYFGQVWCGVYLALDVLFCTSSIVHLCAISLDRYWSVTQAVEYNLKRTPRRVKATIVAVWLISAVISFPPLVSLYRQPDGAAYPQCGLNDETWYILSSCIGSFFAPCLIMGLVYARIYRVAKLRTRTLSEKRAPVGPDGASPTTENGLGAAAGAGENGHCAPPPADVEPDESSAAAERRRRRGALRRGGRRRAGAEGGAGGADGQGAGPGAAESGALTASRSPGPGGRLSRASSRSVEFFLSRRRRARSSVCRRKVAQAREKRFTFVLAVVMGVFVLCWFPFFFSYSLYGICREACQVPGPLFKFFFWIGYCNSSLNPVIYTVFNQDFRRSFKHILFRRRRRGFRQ", "details": "Compound concentration 10.0 uM"}, "[19]": {"molecular_target": "T3, Alpha-2A adrenergic receptor (Homo sapiens) (UniProt P08913)", "T3 sequence (whole entry)": "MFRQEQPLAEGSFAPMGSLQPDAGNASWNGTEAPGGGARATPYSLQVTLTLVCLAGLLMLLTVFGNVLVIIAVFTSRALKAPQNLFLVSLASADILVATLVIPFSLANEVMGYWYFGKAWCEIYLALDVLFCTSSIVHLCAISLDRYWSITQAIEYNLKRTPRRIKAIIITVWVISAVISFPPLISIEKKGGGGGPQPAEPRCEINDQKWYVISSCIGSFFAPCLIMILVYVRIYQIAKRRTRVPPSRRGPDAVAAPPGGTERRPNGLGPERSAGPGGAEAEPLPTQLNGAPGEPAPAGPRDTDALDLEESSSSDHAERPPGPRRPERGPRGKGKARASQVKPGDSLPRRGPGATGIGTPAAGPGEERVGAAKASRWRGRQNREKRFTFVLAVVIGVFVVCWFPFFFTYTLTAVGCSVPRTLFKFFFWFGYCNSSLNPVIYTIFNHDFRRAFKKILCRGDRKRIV", "details": "Compound concentration 10.0 uM"}},
  "note": "Active and inactive are the calls of the source. The calls are words filed in the database; no cut-off is given here.",
  "data": [
    {"molecule": "CCCOc1ccc([C@H]2[C@H](C(=O)O)[C@@H](c3ccc4c(c3)OCO4)CN2CC(=O)Nc2c(CC)cccc2CC)cc1", "note": "[A-192621]", "values": [
      {"measurement": "inhibition", "setting": "[1]", "result": 11, "unit": "%"},
      {"measurement": "inhibition", "setting": "[2]", "result": -5.43, "unit": "%"},
      {"measurement": "inhibition", "setting": "[3]", "result": 36, "unit": "%"},
      {"measurement": "inhibition", "setting": "[4]", "result": -3.09, "unit": "%"},
      {"measurement": "inhibition", "setting": "[5]", "result": 5.77, "unit": "%"},
      {"measurement": "inhibition", "setting": "Rattus norvegicus", "result": 16.5, "unit": "%"},
      {"measurement": "inhibition", "setting": "[6]", "result": -5.44, "unit": "%"},
      {"measurement": "inhibition", "setting": "[7]", "result": 4.31, "unit": "%"},
      {"measurement": "inhibition", "setting": "[8]", "result": -3.72, "unit": "%"},
      {"measurement": "inhibition", "setting": "[9]", "result": 35.3, "unit": "%"},
      {"measurement": "inhibition", "setting": "[10]", "result": 4.84, "unit": "%"},
      {"measurement": "inhibition", "setting": "[11]", "result": -5.22, "unit": "%"},
      {"measurement": "inhibition", "setting": "[12]", "result": 7.94, "unit": "%"},
      {"measurement": "inhibition", "setting": "[13]", "result": 4.29, "unit": "%"},
      {"measurement": "inhibition", "setting": "[14]", "result": -1.79, "unit": "%"},
      {"measurement": "inhibition", "setting": "[15]", "result": 19.6, "unit": "%"},
      {"measurement": "inhibition", "setting": "[16]", "result": -7.1, "unit": "%"},
      {"measurement": "IC50", "setting": "[17]", "result": "0.8 nM (active)"},
      {"measurement": "inhibition", "setting": "[18]", "result": 0.5, "unit": "%"},
      {"measurement": "inhibition", "setting": "[19]", "result": 9.55, "unit": "%"}
    ]}
  ]
}
